This is an account of results in patent US9440982B2 (Eolas Therapeutics, Inc., priority 2012, dated 2016).

In the series the target is T1, CYP3A4 (Homo sapiens, UniProt P08684).
T1 construct: pre-incubated with human liver microsomes and NADPH; from tissue; host or cells: human liver microsomes
T1 sequence (P08684 whole entry): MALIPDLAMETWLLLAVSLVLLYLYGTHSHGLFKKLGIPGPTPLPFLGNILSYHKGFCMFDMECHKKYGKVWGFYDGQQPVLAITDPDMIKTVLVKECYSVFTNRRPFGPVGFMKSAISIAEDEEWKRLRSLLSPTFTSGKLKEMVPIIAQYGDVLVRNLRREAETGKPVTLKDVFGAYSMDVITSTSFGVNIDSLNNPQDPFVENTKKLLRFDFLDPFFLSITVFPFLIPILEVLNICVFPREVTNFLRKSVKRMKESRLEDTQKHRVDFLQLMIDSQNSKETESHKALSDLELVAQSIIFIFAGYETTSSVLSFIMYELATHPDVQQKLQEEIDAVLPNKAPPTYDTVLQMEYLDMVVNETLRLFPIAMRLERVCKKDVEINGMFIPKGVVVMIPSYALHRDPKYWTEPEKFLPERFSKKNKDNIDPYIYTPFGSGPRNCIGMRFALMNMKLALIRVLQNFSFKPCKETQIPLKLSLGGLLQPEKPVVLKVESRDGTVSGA
The series can be described thus: Cytochrome P450 inhibition assay (midazolam hydroxylation). The format is in vitro ADME. The following applies: human, human liver microsomes, probe midazolam (hydroxylation to 1′-hydroxymidazolam), 10 μM test compound, midazolam at approximately its Km. The protocol:
Compounds were tested for the potential to induce drug-drug interactions by inhibition of the cytochrome P450 3A4 isoform. The assay evaluated the metabolism of a specific marker substrate (CYP3A4, midazolam hydroxylation to 1′-hydroxymidazolam) in the presence or absence of 10 μM test compound. The concentration of the marker substrate was approximately its Km (Dixit et al., Biopharm. Drug Dispos. 2007, 28(5), 257-262). A specific inhibitor for the isoform was included in each run to validate the system. An appropriate positive control inhibitor was used. Mechanism-based inhibition was investigated where warranted using a classical method. To evaluate time-dependent inhibition, parallel samples may have been included where […] was pre-incubated with human liver microsomes and NADPH for 30 min prior to the addition of the P450 substrate. The percent inhibition of the pre-incubated and non-pre-incubated samples were compared as a preliminary evaluation of time-dependent inhibition.
The molecule `Cc1ccc(-n2nccn2)c(C(=O)N2CCC[C@@H](C)[C@H]2CNc2nnc(C(F)(F)F)s2)c1` [Example A102, ((2S,3R)-3-Methyl-2-(((5-(trifluoromethyl)-1,3,4-thiadiazol-2-yl)amino)methyl)piperidin-1-yl)(5-methyl-2-(2H-1,2,3-triazol-2-yl)phenyl)methanone] registered an inhibition at 10 µM of 48%.
On to `Cc1ccc(-n2nccn2)c(C(=O)N2CCC[C@@H](C)[C@H]2CNc2cc(C)nc3nc(C)nn23)c1` [Example A213, ((2S,3R)-2-(((2,5-Dimethyl-[1,2,4]triazolo[1,5-a]pyrimidin-7-yl)amino)methyl)-3-methylpiperidin-1-yl)(5-methyl-2-(2H-1,2,3-triazol-2-yl)phenyl)methanone], for which the inhibition at 10 µM came out at 19%.
The molecule `Cc1ccc(-n2cccn2)c(C(=O)N2CCC[C@@H](C)[C@H]2CNc2ncc(F)cn2)c1` [Example A170, ((2S,3R)-2-(((5-Fluoropyrimidin-2-yl)amino)methyl)-3-methylpiperidin-1-yl)(5-methyl-2-(1H-pyrazol-1-yl)phenyl)methanone] returned an inhibition at 10 µM of 66%.
Molecule `Cc1ccc(-n2cc(C)nn2)c(C(=O)N2CCC[C@@H](C)[C@H]2CNc2ccc(C(F)(F)F)cn2)c1` [Example A113, ((2S,3R)-3-Methyl-2-(((5-(trifluoromethyl)pyridin-2-yl)amino)methyl)piperidin-1-yl)(5-methyl-2-(4-methyl-1H-1,2,3-triazol-1-yl)phenyl)methanone] yielded an inhibition at 10 µM of 98%.
Next, `Cc1ccc(-n2nccn2)c(C(=O)N2CCC[C@@H](C)[C@H]2CNc2cccc(C#N)n2)c1` [Example A81, 6-((((2S,3R)-3-Methyl-1-(5-methyl-2-(2H-1,2,3-triazol-2-yl)benzoyl)piperidin-2-yl)methyl)amino)picolinonitrile]: 67%; `Cc1cccc(C(=O)N2CCC[C@@H](C)[C@H]2CNc2ncc(Cl)cn2)c1-n1nccn1` [Example A268, ((2S,3R)-2-(((5-Chloropyrimidin-2-yl)amino)methyl)-3-methylpiperidin-1-yl)(3-methyl-2-(2H-1,2,3-triazol-2-yl)phenyl)methanone]: 60%.
In turn, `Cc1ccc(-c2ccc(F)cc2)c(C(=O)N2CCC[C@@H](C)[C@H]2CNc2ccc(C(F)(F)F)cn2)n1` [Example A73, (3-(4-Fluorophenyl)-6-methylpyridin-2-yl)((2S,3R)-3-methyl-2-(((5-(trifluoromethyl)pyridin-2-yl)amino)methyl)piperidin-1-yl)methanone] yielded an inhibition at 10 µM of 76%.
As to `Cc1ccc(-n2nccn2)c(C(=O)N2CCC(F)(F)C[C@H]2CNc2ncc(C(F)(F)F)cn2)c1` [Example A211, (S)-(4,4-Difluoro-2-(((5-(trifluoromethyl)pyrimidin-2-yl)amino)methyl)piperidin-1-yl)(5-methyl-2-(2H-1,2,3-triazol-2-yl)phenyl)methanone], the inhibition at 10 µM came out at 60%.
Next, `Cc1ccc(-n2ccc(C)n2)c(C(=O)N2CCC[C@@H](C)[C@H]2CNc2ccc(C(F)(F)F)cn2)c1` [Example A108, ((2S,3R)-3-Methyl-2-(((5-(trifluoromethyl)pyridin-2-yl)amino)methyl)piperidin-1-yl)(5-methyl-2-(3-methyl-1H-pyrazol-1-yl)phenyl)methanone]: 88%.
With `Cc1ccc(-n2cccn2)c(C(=O)N2CCC[C@@H](C)[C@H]2CNc2ccc(C#N)cn2)c1` [Example A155, 6-((((2S,3R)-3-Methyl-1-(5-methyl-2-(1H-pyrazol-1-yl)benzoyl)piperidin-2-yl)methyl)amino)nicotinonitrile], the inhibition at 10 µM came to 72%.
For `C[C@@H]1CCCN(C(=O)c2cc(F)ccc2-c2ncccn2)[C@@H]1CNc1ncc(Cl)cn1` [Example A226, ((2S,3R)-2-(((5-Chloropyrimidin-2-yl)amino)methyl)-3-methylpiperidin-1-yl)(5-fluoro-2-(pyrimidin-2-yl)phenyl) methanone], the inhibition at 10 µM is 60%.
In turn, `Cc1ccc(-n2nccn2)c(C(=O)N2CCC[C@@H](C)[C@H]2CNc2nc(C)cs2)c1` [Example A124, ((2S,3R)-3-Methyl-2-(((4-methylthiazol-2-yl)amino)methyl)piperidin-1-yl)(5-methyl-2-(2H-1,2,3-triazol-2-yl)phenyl)methanone] registered an inhibition at 10 µM of 55%.
For `Cc1ccc(-c2cccnc2)c(C(=O)N2CCC[C@@H](C)[C@H]2CNc2nc3cc(Cl)ccc3o2)c1` [Example A31, ((2S,3R)-2-(((5-Chlorobenzo[d]oxazol-2-yl)amino)methyl)-3-methylpiperidin-1-yl)(5-methyl-2-(pyridin-3-yl)phenyl)methanone] the value was 98%; for `C[C@@H]1CCCN(C(=O)c2cc(F)c(F)cc2-n2nccn2)[C@@H]1CNc1ccc(Cl)cn1` [Example A246, ((2S,3R)-2-(((5-Chloropyridin-2-yl)amino)methyl)-3-methylpiperidin-1-yl)(4,5-difluoro-2-(2H-1,2,3-triazol-2-yl)phenyl)methanone], 69%; for `Cc1ccc(-c2nccc(C)n2)c(C(=O)N2CCC[C@@H](C)[C@H]2CNc2nc3cc(Cl)ccc3o2)c1` [Example A35, ((2S,3R)-2-(((5-Chlorobenzo[d]oxazol-2-yl)amino)methyl)-3-methylpiperidin-1-yl)(5-methyl-2-(4-methylpyrimidin-2-yl)phenyl)methanone], 92%.
For `Cc1ccc(-c2nccs2)c(C(=O)N2CCC[C@@H](C)[C@H]2CNc2nc3cc(Cl)ccc3o2)c1` [Example A30, ((2S,3R)-2-(((5-Chlorobenzo[d]oxazol-2-yl)amino)methyl)-3-methylpiperidin-1-yl)(5-methyl-2-(thiazol-2-yl)phenyl)methanone] the value was 97%; for `COc1ncc(-c2ccc(C)cc2C(=O)N2CCC[C@@H](C)[C@H]2CNc2nc3cc(Cl)ccc3o2)cn1` [Example A39, ((2S,3R)-2-(((5-Chlorobenzo[d]oxazol-2-yl)amino)methyl)-3-methylpiperidin-1-yl) (2-(2-methoxypyrimidin-5-yl)-5-methylphenyl)methanone], 96%.
For `Cc1ccc(-c2cncs2)c(C(=O)N2CCC[C@@H](C)[C@H]2CNc2ccc(C(F)(F)F)cn2)c1` [Example A25, ((2S,3R)-3-Methyl-2-(((5-(trifluoromethyl)pyridin-2-yl)amino)methyl)piperidin-1-yl)(5-methyl-2-(thiazol-5-yl)phenyl)methanone] the value was 99%; for `Cc1nc(C(=O)N2CCC[C@@H](C)[C@H]2CNc2nc3cc(F)ccc3o2)c(-c2ccc(F)cc2)s1` [Example A15, ((2S,3R)-2-(((5-Fluorobenzo[d]oxazol-2-yl)amino)methyl)-3-methylpiperidin-1-yl) (5-(4-fluorophenyl)-2-methylthiazol-4-yl)methanone], 78%.
`Cc1ccc(-c2cnn(C)c2)c(C(=O)N2CCC[C@@H](C)[C@H]2CNc2ccc(Cl)cn2)c1` [Example A105, ((2S,3R)-2-(((5-Chloropyridin-2-yl)amino)methyl)-3-methylpiperidin-1-yl)(5-methyl-2-(1-methyl-1H-pyrazol-4-yl)phenyl)methanone] displayed an inhibition at 10 µM of 96%.
